Counter-ions that a name gives are not always drawn. Like-named read-outs stand apart in the source and are kept apart here. Starred links: 1 amine or outer side, 2 acyl side, 3 side chain; linkers in the order of their positions; H or OH if unused. Positions of bridges follow the written chain, without caps; N, C: chain ends. Non-standard residues stand in square brackets, D forms with d. Residues, ends and D or L forms follow the SMILES beside them. *: point of attachment. X1 = NC1=N[C@@H]([C@H](N[*:1])C(=O)[*:2])C[C@H](O)N1; ΔAla(Z-3-ureido) = NC(=O)N/C=C(\N)C(=O)O; β3hOrn = NCCC[C@H](N)CC(=O)*; Dap = NC[C@H](N)C(=O)O
Key:
[1] = WST-1 cytotoxicity, wildtype U2OS cells; settings: human, wildtype U2OS cells
in vitro = settings: human, U2OS-HA-hNTCP cells
human NTCP [2] = target: T1, human NTCP (Homo sapiens, UniProt Q14973); test: Screening taurocholate uptake assay (96-well, [14C]taurocholate, 10 µM drug)
T1 sequence (Q14973 1-349): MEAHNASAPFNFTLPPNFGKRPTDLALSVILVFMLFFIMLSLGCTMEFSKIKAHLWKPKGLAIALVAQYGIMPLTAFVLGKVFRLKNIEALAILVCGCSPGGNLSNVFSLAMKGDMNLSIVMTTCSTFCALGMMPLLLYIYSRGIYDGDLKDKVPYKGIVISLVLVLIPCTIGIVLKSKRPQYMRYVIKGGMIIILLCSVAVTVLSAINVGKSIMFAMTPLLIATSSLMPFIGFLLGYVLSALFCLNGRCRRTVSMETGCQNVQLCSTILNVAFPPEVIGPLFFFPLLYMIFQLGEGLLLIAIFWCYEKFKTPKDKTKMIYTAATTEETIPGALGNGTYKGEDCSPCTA

human NTCP [3] = target: T1, human NTCP; test: Screening fluorescent competitive Myrcludex B-FITC binding assay (96-well, 10 µM drug)
[4] = Prestwick library screen, taurocholate uptake, 10 µM drug
[5] = ranking score beside the functional and binding assay B-scores of the screen
[6] = Prestwick library screen, Myrcludex B-FITC binding, 10 µM drug
[7] = Prestwick library screen, 10 µM drug, B-score of taurocholate uptake
[8] = combined ranking from functional and binding assay B-scores
[9] = Prestwick library screen, 10 µM drug, B-score of Myrcludex B-FITC binding
[10] = combined ranking from functional and binding screening assays
[11] = screen, 10 µM drug, taurocholate uptake
[12] = screen, 10 µM drug, Myrcludex B-FITC binding

## CC(C)c1ccc2oc3nc(N)c(C(=O)O)cc3c(=O)c2c1 [Amlexanox]
[1]
  viability at 2 h, 1 µM: 88.2 ± 9.6%
  viability at 2 h, 10 µM: 94.8 ± 13.8%
  viability at 2 h, 100 µM: 77.3 ± 5.6%
In vitro
  viability at 2 h, 1 µM: 99.6 ± 6.1%
  viability at 2 h, 10 µM: 102 ± 18.9%
  viability at 2 h, 100 µM: 92.7 ± 17.8%

## CO[C@H]1C[C@H](O[C@H]2[C@H](C)[C@@H](O[C@@H]3O[C@H](C)C[C@H](N(C)C)[C@H]3OC(C)=O)[C@@H](C)C[C@@]3(CO3)C(=O)[C@H](C)[C@@H](OC(C)=O)[C@@H](C)[C@@H](C)OC(=O)[C@@H]2C)O[C@@H](C)[C@@H]1OC(C)=O [Troleandomycin]
Human NTCP [2]; [4]
  B-score functional assay: -0.071
Human NTCP [2]; [5]
  Ranking score: 732.508
Human NTCP [3]; [6]
  B-score binding assay: 0.633

## COc1cc(C(=O)NC2CCCNC2)cc(OC)c1OC (centres unmarked) [Troxipide]
Human NTCP [2]; [7]
  B-score functional assay: 0.286
Human NTCP [2]; [8]
  Ranking score: 1019.78
Human NTCP [3]; [9]
  B-score binding assay: 2.726

## CC[C@H]1OC(=O)C[C@@H](O)[C@H](C)[C@@H](O[C@@H]2O[C@H](C)[C@@H](O[C@H]3C[C@@](C)(O)[C@@H](O)[C@H](C)O3)[C@H](N(C)C)[C@H]2O)[C@@H](CC=O)C[C@@H](C)C(=O)/C=C/C(C)=C/[C@@H]1CO[C@@H]1O[C@H](C)[C@@H](O)[C@@H](OC)[C@H]1OC [Tylosin]
Human NTCP [2]; [7]
  B-score functional assay: 0.165
Human NTCP [2]; [8]
  Ranking score: 978.04
Human NTCP [3]; [9]
  B-score binding assay: 2.256

## COc1ccccc1N1CCN(CCCNc2cc(=O)n(C)c(=O)n2C)CC1 [Urapidil hydrochloride]
Human NTCP [2]; [7]
  B-score functional assay: 0.807
Human NTCP [2]; [8]
  Ranking score: 1027.42
Human NTCP [3]; [9]
  B-score binding assay: 1.015

## Cc1onc(-c2ccccc2)c1-c1ccc(S(N)(=O)=O)cc1 [Valdecoxib]
Human NTCP [2]; [4]
  B-score functional assay: -0.028
Human NTCP [2]; [5]
  Ranking score: 650.385
Human NTCP [3]; [6]
  B-score binding assay: 0.051

## CCCC(CCC)C(=O)O [Valproic acid]
Human NTCP [2]; [7]
  B-score functional assay: 0.92
Human NTCP [2]; [8]
  Ranking score: 1093.47
Human NTCP [3]; [9]
  B-score binding assay: 1.515

## CCCCC(=O)N(Cc1ccc(-c2ccccc2-c2nnn[nH]2)cc1)[C@H](C(=O)O)C(C)C [Valsartan]
Human NTCP [2]
  Ranking score: 721.211
Human NTCP [2]; [4]
  B-score functional assay: 0.156
Human NTCP [3]
  B-score binding assay: 0.016

## CN[C@H](CC(C)C)C(=O)N[C@H]1C(=O)N[C@@H](CC(N)=O)C(=O)N[C@H]2C(=O)N[C@H]3C(=O)N[C@H](C(=O)N[C@H](C(=O)O)c4cc(O)cc(O)c4-c4cc3ccc4O)[C@H](O)c3ccc(c(Cl)c3)Oc3cc2cc(c3O[C@@H]2O[C@H](CO)[C@@H](O)[C@H](O)[C@H]2O[C@H]2C[C@](C)(N)[C@H](O)[C@H](C)O2)Oc2ccc(cc2Cl)[C@H]1O [Vancomycin hydrochloride]
Human NTCP [2]
  B-score functional assay: -0.819
  Ranking score: 571.108
Human NTCP [3]
  B-score binding assay: 1.401

## CC(=O)O[C@H]1C[C@@H]2CC[C@@H]3[C@H](CC[C@@]4(C)[C@H]3C[C@H]([N+]3(C)CCCCC3)[C@@H]4OC(C)=O)[C@@]2(C)C[C@@H]1N1CCCCC1 [Vecuronium bromide]
Human NTCP [2]; [4]
  B-score functional assay: 0.006
Human NTCP [2]; [5]
  Ranking score: 708.114
Human NTCP [3]; [6]
  B-score binding assay: 0.155

## Nc1ncnc2c1ncn2[C@@H]1O[C@H](CO)[C@@H](O)[C@@H]1O [Vidarabine]
Human NTCP [2]; [10]
  Ranking score: 319.086
Human NTCP [2]; [11]
  B-score functional assay: -2.606
Human NTCP [3]; [12]
  B-score binding assay: 1.523

## C=CC(N)CCC(=O)O (centres unmarked) [Vigabatrin]
Human NTCP [2]; [4]
  B-score functional assay: -0.08
Human NTCP [2]; [5]
  Ranking score: 730.208
Human NTCP [3]; [6]
  B-score binding assay: 0.671

## CCOc1ccccc1OCC1CNCCO1 (centres unmarked) [Viloxazine hydrochloride]
Human NTCP [2]
  B-score functional assay: -1.513
  Ranking score: 214.483
Human NTCP [3]
  B-score binding assay: -0.914

## CC[C@]12CCCN3CCc4c(n(c5ccccc45)[C@@](O)(C(=O)OC)C1)[C@@H]32 [Vincamine]
Human NTCP [2]; [4]
  B-score functional assay: -0.257
Human NTCP [2]; [5]
  Ranking score: 659.7
Human NTCP [3]; [6]
  B-score binding assay: 0.616

## CCOC(=O)C1=C[C@]2(CC)CCCN3CCc4c(n1c1ccccc41)[C@@H]32 [Vinpocetine]
Human NTCP [2]; [10]
  Ranking score: 428.448
Human NTCP [2]; [11]
  B-score functional assay: 2.672
Human NTCP [3]; [12]
  B-score binding assay: -1.57

## NCCC[C@H](N)CC(=O)N[C@H]1CNC(=O)[C@H]([C@H]2C[C@H](O)NC(N)=N2)NC(=O)/C(=C/NC(N)=O)NC(=O)[C@H](CO)NC(=O)[C@H](CO)NC1=O.O=S(=O)(O)O [Viomycin sulfate] (β3hOrn-[Dap]SS[ΔAla(Z-3-ureido)][X1]; lactam 1-C)
Human NTCP [2]; [7]
  B-score functional assay: 0.436
Human NTCP [2]; [8]
  Ranking score: 846.67
Human NTCP [3]; [9]
  B-score binding assay: 0.234

## C[C@@H](c1ncncc1F)[C@](O)(Cn1cncn1)c1ccc(F)cc1F [Voriconazole]
Human NTCP [2]; [10]
  Ranking score: 370.988
Human NTCP [2]; [11]
  B-score functional assay: -0.582
Human NTCP [3]; [12]
  B-score binding assay: -0.464

## CC(=O)CC(c1ccccc1)c1c(O)c2ccccc2oc1=O (centres unmarked) [Warfarin]
Human NTCP [2]; [10]
  Ranking score: 391.491
Human NTCP [2]; [11]
  B-score functional assay: -1.345
Human NTCP [3]; [12]
  B-score binding assay: 0.123

## O=C(NCCNCC(O)COc1ccc(O)cc1)N1CCOCC1 (centres unmarked) [Xamoterol hemifumarate]
Human NTCP [2]
  B-score functional assay: 0.875
  Ranking score: 564.879
Human NTCP [3]
  B-score binding assay: -0.721

## Cc1cccc(C)c1N=C1NCCCS1 [Xylazine]
Human NTCP [2]
  B-score functional assay: -0.697
  Ranking score: 404.611
Human NTCP [3]
  B-score binding assay: -0.164

## Cc1cc(C(C)(C)C)cc(C)c1CC1=NCCN1 [Xylometazoline hydrochloride]
Human NTCP [2]; [10]
  Ranking score: 287.23
Human NTCP [2]; [11]
  B-score functional assay: -0.462
Human NTCP [3]; [12]
  B-score binding assay: -1.17

## Nc1ccn([C@H]2CC[C@@H](CO)O2)c(=O)n1 [Zalcitabine]
Human NTCP [2]; [4]
  B-score functional assay: 1.286
Human NTCP [2]; [5]
  Ranking score: 782.741
Human NTCP [3]; [6]
  B-score binding assay: -0.087

## COc1cc(-c2ccc(=O)[nH]n2)ccc1OC(F)F [Zardaverine]
Human NTCP [2]; [10]
  Ranking score: 379.335
Human NTCP [2]; [11]
  B-score functional assay: -1.701
Human NTCP [3]; [12]
  B-score binding assay: 0.49

## Cc1cn([C@H]2C[C@H](N=[N+]=[N-])[C@@H](CO)O2)c(=O)[nH]c1=O [Zidovudine, AZT]
Human NTCP [2]; [7]
  B-score functional assay: 1.119
Human NTCP [2]; [8]
  Ranking score: 985.737
Human NTCP [3]; [9]
  B-score binding assay: 0.429

## CC(c1cc2ccccc2s1)N(O)C(N)=O (centres unmarked) [Zileuton]
Human NTCP [2]; [4]
  B-score functional assay: -0.271
Human NTCP [2]; [5]
  Ranking score: 706.817
Human NTCP [3]; [6]
  B-score binding assay: 1.294

## O=C1Cc2cc(CCN3CCN(c4nsc5ccccc45)CC3)c(Cl)cc2N1 [Ziprasidone Hydrochloride]
Human NTCP [2]; [10]
  Ranking score: 382.094
Human NTCP [2]; [11]
  B-score functional assay: -0.279
Human NTCP [3]; [12]
  B-score binding assay: -0.675

## O=P(O)(O)C(O)(Cn1ccnc1)P(=O)(O)O [Zoledronic acid hydrate]
Human NTCP [2]; [10]
  Ranking score: 422.203
Human NTCP [2]; [11]
  B-score functional assay: -0.476
Human NTCP [3]; [12]
  B-score binding assay: -0.262

## NS(=O)(=O)Cc1noc2ccccc12 [Zonisamide]
Human NTCP [2]; [7]
  B-score functional assay: 3.016
Human NTCP [2]; [8]
  Ranking score: 1038.21
Human NTCP [3]; [9]
  B-score binding assay: 0.365

## CN(C)CCOC1=Cc2ccccc2Sc2ccc(Cl)cc21 [Zotepine]
Human NTCP [2]; [7]
  B-score functional assay: 0.249
Human NTCP [2]; [8]
  Ranking score: 950.167
Human NTCP [3]; [9]
  B-score binding assay: 1.26

## (-) -Levobunolol hydrochloride
Human NTCP [2]; [7]
  B-score functional assay: 0.733
Human NTCP [2]; [8]
  Ranking score: 1039.8
Human NTCP [3]; [9]
  B-score binding assay: 1.256

## Bacitracin
Human NTCP [2]; [7]
  B-score functional assay: 1.013
Human NTCP [2]; [8]
  Ranking score: 1026.66
Human NTCP [3]; [9]
  B-score binding assay: 0.785

## Cyanocobalamin
Human NTCP [2]; [4]
  B-score functional assay: 0.223
Human NTCP [2]; [5]
  Ranking score: 774.968
Human NTCP [3]; [6]
  B-score binding assay: 0.087

## Deoxycorticosterone
Human NTCP [2]; [10]
  Ranking score: 460.68
Human NTCP [2]; [11]
  B-score functional assay: -0.349
Human NTCP [3]; [12]
  B-score binding assay: -0.204

## Eburnamonine (-)
Human NTCP [2]; [10]
  Ranking score: 349.983
Human NTCP [2]; [11]
  B-score functional assay: -1.058
Human NTCP [3]; [12]
  B-score binding assay: -0.173

## Norgestrel-(-)-D
Human NTCP [2]; [4]
  B-score functional assay: 0.036
Human NTCP [2]; [5]
  Ranking score: 704.84
Human NTCP [3]; [6]
  B-score binding assay: 0.069

## Spiramycin
Human NTCP [2]; [7]
  B-score functional assay: 0.83
Human NTCP [2]; [8]
  Ranking score: 1002.4
Human NTCP [3]; [9]
  B-score binding assay: 0.801

## Tyloxapol
Human NTCP [2]; [11]
  B-score functional assay: -1.163
Human NTCP [3]; [12]
  B-score binding assay: 0.59
